Experiments:
PIK3CA (human) = PIK3CA (human) (UniProt P42336); assay: Inhibition of PIK3CA Kinase Activity (Fluorescence Polarization Format Assay)
ERBB2;PIK3CA (human) = ERBB2;PIK3CA (human) (UniProt P42336); assay: Inhibition of ERBB2 and PIK3CA Kinase Activity in MDA361 Cells; details: mda-361
Chain of ERBB2;PIK3CA (human) (P42336 whole entry, looked up): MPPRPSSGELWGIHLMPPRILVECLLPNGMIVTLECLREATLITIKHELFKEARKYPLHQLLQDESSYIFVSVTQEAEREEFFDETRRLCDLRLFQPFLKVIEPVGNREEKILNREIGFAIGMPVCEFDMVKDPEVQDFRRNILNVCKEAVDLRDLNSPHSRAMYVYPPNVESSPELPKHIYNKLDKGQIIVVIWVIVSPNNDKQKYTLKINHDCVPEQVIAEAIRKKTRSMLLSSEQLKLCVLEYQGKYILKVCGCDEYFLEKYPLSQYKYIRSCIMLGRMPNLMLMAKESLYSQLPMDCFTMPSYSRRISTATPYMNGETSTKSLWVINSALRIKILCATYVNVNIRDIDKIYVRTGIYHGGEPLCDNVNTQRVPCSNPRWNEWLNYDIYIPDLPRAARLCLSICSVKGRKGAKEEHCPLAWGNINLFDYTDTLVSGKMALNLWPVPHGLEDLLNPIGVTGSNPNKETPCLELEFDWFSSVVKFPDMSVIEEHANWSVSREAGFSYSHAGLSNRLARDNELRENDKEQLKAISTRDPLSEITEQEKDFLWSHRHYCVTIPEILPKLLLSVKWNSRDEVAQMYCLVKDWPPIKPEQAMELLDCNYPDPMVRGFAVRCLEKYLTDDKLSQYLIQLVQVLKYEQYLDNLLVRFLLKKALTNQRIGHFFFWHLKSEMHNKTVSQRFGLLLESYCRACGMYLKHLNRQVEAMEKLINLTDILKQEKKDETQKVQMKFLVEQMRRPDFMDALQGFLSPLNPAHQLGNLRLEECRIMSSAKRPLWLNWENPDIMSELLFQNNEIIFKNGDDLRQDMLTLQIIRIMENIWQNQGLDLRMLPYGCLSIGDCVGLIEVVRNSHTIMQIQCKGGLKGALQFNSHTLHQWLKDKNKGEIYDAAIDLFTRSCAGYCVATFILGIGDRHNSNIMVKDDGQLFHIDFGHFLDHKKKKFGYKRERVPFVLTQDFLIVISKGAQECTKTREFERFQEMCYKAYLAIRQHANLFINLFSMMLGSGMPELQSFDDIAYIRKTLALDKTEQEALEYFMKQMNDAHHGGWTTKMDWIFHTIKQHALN

Chain of PIK3CA (human) (P42336 whole entry, looked up): as above

Row | IC50 (PIK3CA (human)) [nM] | IC50 (ERBB2;PIK3CA (human)) [nM] | SMILES
1 | 76 | – | CN(C)CCn1ccc2c(N3CCOCC3)nc(-c3cccc(O)c3)nc21
2 | 30 | – | O=C(Nc1ccncc1)Nc1ccc(-c2nc(N3CCOCC3)c3ccn(CCN4CCCC4)c3n2)cc1
3 | 43 | – | Oc1cccc(-c2nc(N3CCOCC3)c3cc[nH]c3n2)c1
4 | 226 | – | CCNC(=O)Nc1ccc(-c2nc(N3CCOCC3)c3ccn(CCN(C)C)c3n2)cc1
5 | – | < 3 | CN(C)CCN(C)C(=O)c1ccc(NC(=O)Nc2ccc(-c3nc(N4CCOCC4)c4ccn(CC(F)(F)F)c4n3)cc2)cc1
6 | 1510 | – | Cc1cccc(-c2nc(N3CCOCC3)c3[nH]ccc3n2)c1

Source: the Kinase Knowledgebase extract (Sharma et al. 2016)
